Values of other authors, collected in US20180289729A1, “COMBINATION THERAPY FOR TREATMENT OF HUMAN NEURODEGENERATIVE DISEASES” (priority 2017, published 2018).

Experiments:
[1] = tested on: proliferating neural stem and progenitor cells within the hippocampal dentate gyrus; settings: both young and "old" mice models
hippocampal neurogenesis = settings: rat models

SMILES	increase in the number of proliferating neural stem and progenitor cells within the hippocampal dentate gyrus [1]	effect on hippocampal neurogenesis (hippocampal neurogenesis)
Cc1cccc(-c2n[nH]cc2-c2ccc3ncccc3n2)n1 [2-(3-(6-methylpyricin-2-yl)-1H-pyrazol-4-yl)-1,5-naphthyridine]	two-fold increase	–
CCCCCCC(C)(C)c1cc(O)c2c(c1)OC(C)(C)[C@@H]1CC=C(CO)C[C@@H]21 [[(6aR)-trans-3-(1,1-dimethylheptyl)-6a, 7,10,10a-tetrahydro-1-hydroxy-6,6-dimethyl-6H-dibenzo [b,d]pyran-9-methanol]]	–	dramatic effect
